Assay results reported in US7968725B2, “Pyridinyl modulators of γ-secretase” (Janssen Pharmaceutica N.V., priority 2008, dated 2011).

These molecules were tested against T1, γ-secretase (Homo sapiens, UniProt P49768) (assay: Screening for γ-secretase-modulating activity in SKNBE2 cells carrying the APP 695-wild type (assay per Citron et al 1997)). Settings: @ 1 uM; SKNBE2 cells carrying APP 695-wild type.
T1 construct: endogenous in cells; host or cells: SKNBE2 cells carrying APP 695 wild type
Format: cell-based
Method: Screening of the Compounds of the Invention for γ-Secretase-Modulating Activity
Screening was carried out using SKNBE2 cells carrying the APP 695-wild type, grown in DMEM/NUT-mix F12 (HAM) provided by Gibco (cat no. 31330-38) containing 5% Serum/Fe supplemented with 1% non-essential amino acids.
Cells were grown to near confluency.
The screening was performed using the assay as described in Citron et al (1997) Nature Medicine 3: 67.

Row | Compound | inhibition at 1 µM [%]
1 | C=C(C)CC(C(=O)O)c1cc(-c2ccc(C(F)(F)F)cc2)nc(-c2cccc(F)c2F)c1 (stereo not shown) [Example 20, 2-[2-(2,3-Difluoro-phenyl)-6-(4-trifluoromethyl-phenyl)-pyridin-4-yl]-4-methyl-pent-4-enoic acid] | 9
2 | CC(C)CC(C(=O)O)c1cc(-c2ccc(C(F)(F)F)cc2)nc(-c2cccc(-c3ccccc3)c2)c1 (stereo not shown) [Example 35, 2-[2-Biphenyl-3-yl-6-(4-trifluoromethyl-phenyl)-pyridin-4-yl]-4-methyl-pentanoic acid] | 53
3 | C=C(C)CC(C(=O)O)c1cc(-c2ccc(C(F)(F)F)cc2)nc(-c2cc3ccccc3s2)c1 (stereo not shown) [Example 28, 2-[2-Benzo[b]thiophen-2-yl-6-(4-trifluoromethyl-phenyl)-pyridin-4-yl]-4-methyl-pent-4-enoic acid] | 0
4 | CC(C)CC(C(=O)O)c1cc(-c2ccc(C(F)(F)F)cc2)nc(-c2cncc3ccccc23)c1 (stereo not shown) [Example 19, 2-[2-Isoquinolin-4-yl-6-(4-trifluoromethyl-phenyl)-pyridin-4-yl]-4-methyl-pentanoic acid] | 14
5 | C=C(C)CC(C(=O)O)c1cc(-c2ccc(C(F)(F)F)cc2)nc(-c2cccc(-c3ccccc3)c2)c1 (stereo not shown) [Example 34, 2-[2-Biphenyl-3-yl-6-(4-trifluoromethyl-phenyl)-pyridin-4-yl]-4-methyl-pent-4-enoic acid] | 16
6 | C=C(C)CC(C(=O)O)c1cc(-c2ccc(C(F)(F)F)cc2)nc(-c2ccc(C(F)(F)F)cc2C(F)(F)F)c1 (stereo not shown) [Example 16, 2-[2-(2,4-Bis-trifluoromethyl-phenyl)-6-(4-trifluoromethyl-phenyl)-pyridin-4-yl]-4-methyl-pent-4-enoic acid] | 23
7 | C=C(C)CC(C(=O)O)c1cc(-c2ccc(C(F)(F)F)cc2)nc(-c2cc(F)ccc2F)c1 (stereo not shown) [Example 24, 2-[2-(2,5-Difluoro-phenyl)-6-(4-trifluoromethyl-phenyl)-pyridin-4-yl]-4-methyl-pent-4-enoic acid] | 22
8 | C=C(C)CC(C(=O)O)c1cc(-c2ccc(C(F)(F)F)cc2)nc(-c2cncc3ccccc23)c1 (stereo not shown) [Example 18, 2-[2-Isoquinolin-4-yl-6-(4-trifluoromethyl-phenyl)-pyridin-4-yl]-4-methyl-pent-4-enoic acid] | 14
9 | C=C(C)CC(C(=O)O)c1cc(-c2ccc(C(F)(F)F)cc2)nc(-c2ccc(F)cc2F)c1 (stereo not shown) [Example 23, 2-[2-(2,4-Difluoro-phenyl)-6-(4-trifluoromethyl-phenyl)-pyridin-4-yl]-4-methyl-pent-4-enoic acid] | 0
10 | CC(C)CC(C(=O)O)c1cc(-c2ccc(C(F)(F)F)cc2)nc(N(CCN2CCCCC2)c2ccc(C(F)(F)F)cc2)c1 (stereo not shown) [Example 45, 4-Methyl-2-[2-[(2-piperidin-1-yl-ethyl)-(4-trifluoromethyl-phenyl)-amino]-6-(4-trifluoromethyl-phenyl)-pyridin-4-yl]-pentanoic acid] | 20
11 | C=C(C)CC(C(=O)O)c1cc(-c2ccc(C(F)(F)F)cc2)nc(-c2ccc3ccccc3c2)c1 (stereo not shown) [Example 15, 4-Methyl-2-[2-naphthalen-2-yl-6-(4-trifluoromethyl-phenyl)-pyridin-4-yl]-pent-4-enoic acid] | 19
12 | C=C(C)CC(C(=O)O)c1cc(-c2ccc(C(F)(F)F)cc2)nc(-c2c(F)cccc2F)c1 (stereo not shown) [Example 27, 2-[2-(2,6-Difluoro-phenyl)-6-(4-trifluoromethyl-phenyl)-pyridin-4-yl]-4-methyl-pent-4-enoic acid] | 5
13 | CC(C)COc1cccc(-c2cc(C(CC(C)C)C(=O)O)cc(-c3ccc(C(F)(F)F)cc3)n2)c1 (stereo not shown) [Example 36, 2-[2-(3-Isobutoxy-phenyl)-6-(4-trifluoromethyl-phenyl)-pyridin-4-yl]-4-methyl-pentanoic acid] | 41
14 | C=C(C)CC(C(=O)O)c1cc(-c2ccc(C(F)(F)F)cc2)nc(-c2ccc(C(F)(F)F)nc2)c1 (stereo not shown) [Example 31, 4-Methyl-2-[6′-trifluoromethyl-6-(4-trifluoromethyl-phenyl)-[2,3′]bipyridinyl-4-yl]-pent-4-enoic acid] | 59

Other lines, results leading:

Row | inhibition at 1 µM [%] | Compound
15 | 7 | C=C(C)CC(C(=O)O)c1cc(-c2ccc(C)cc2)nc(-c2ccc(C(F)(F)F)cc2)c1 (stereo not shown) [Example 32, 4-Methyl-2-[2-p-tolyl-6-(4-trifluoromethyl-phenyl)-pyridin-4-yl]-pent-4-enoic acid]
16 | 49 | CC(C)CC(C(=O)O)c1cc(-c2ccc(-c3ccccc3)cc2)nc(-c2ccc(C(F)(F)F)cc2)c1 (stereo not shown) [Example 13, 2-[2-Biphenyl-4-yl-6-(4-trifluoromethyl-phenyl)-pyridin-4-yl]-4-methyl-pentanoic acid]
17 | 32 | CC(C)CC(C(=O)O)c1cc(-c2ccc(C(F)(F)F)cc2)nc(-c2cccc(C(F)(F)F)c2)c1 (stereo not shown) [Example 12, 4-Methyl-2-[2-(3-trifluoromethyl-phenyl)-6-(4-trifluoromethyl-phenyl)-pyridin-4-yl]-pentanoic acid]
18 | 0 | CC(C)CC(C(=O)O)c1cc(-c2ccc(C(F)(F)F)cc2)nc(-c2ccc(C(F)(F)F)nc2)c1 (stereo not shown) [Example 30, 4-Methyl-2-[6′-trifluoromethyl-6-(4-trifluoromethyl-phenyl)-[2,3′]bipyridinyl-4-yl]-pentanoic acid]
19 | 0 | Cc1ccc(-c2cc(C(CC(C)C)C(=O)O)cc(-c3ccc(C(F)(F)F)cc3)n2)cc1 (stereo not shown) [Example 11, 4-Methyl-2-[2-p-tolyl-6-(4-trifluoromethyl-phenyl)-pyridin-4-yl]-pentanoic acid]
20 | 8 | CC(C)CC(C(=O)O)c1cc(-c2ccccc2)nc(-c2ccc(C(F)(F)F)cc2)c1 (stereo not shown) [Example 38, 4-Methyl-2-[2-phenyl-6-(4-trifluoromethyl-phenyl)-pyridin-4-yl]-pentanoic acid]
21 | 2 | CC(C)CC(C(=O)O)c1cc(-c2ccc(C(F)(F)F)cc2)nc(-c2c(F)cccc2F)c1 (stereo not shown) [Example 26, 2-[2-(2,6-Difluoro-phenyl)-6-(4-trifluoromethyl-phenyl)-pyridin-4-yl]-4-methyl-pentanoic acid]
22 | 28 | CC(C)CC(C(=O)O)c1cc(-c2ccc(F)cc2)nc(-c2ccc(C(F)(F)F)cc2)c1 (stereo not shown) [Example 2, 2-[2-(4-Fluoro-phenyl)-6-(4-trifluoromethyl-phenyl)-pyridin-4-yl]-4-methyl-pentanoic acid]
23 | 5 | CC(C)CC(C(=O)O)c1cc(-c2ccc(C(F)(F)F)cc2)nc(-c2ccc(F)cc2F)c1 (stereo not shown) [Example 22, 2-[2-(2,4-Difluoro-phenyl)-6-(4-trifluoromethyl-phenyl)-pyridin-4-yl]-4-methyl-pentanoic acid]
24 | 73 | CC(C)CC(C(=O)O)c1cc(-c2ccc(Oc3ccccc3)cc2)nc(-c2ccc(C(F)(F)F)cc2)c1 (stereo not shown) [Example 37, 4-Methyl-2-[2-(4-phenoxy-phenyl)-6-(4-trifluoromethyl-phenyl)-pyridin-4-yl]-pentanoic acid]
25 | 1 | COc1ccc(-c2cc(C(CC(C)C)C(=O)O)cc(-c3ccc(C(F)(F)F)cc3)n2)cc1 (stereo not shown) [Example 4, 2-[2-(4-Methoxy-phenyl)-6-(4-trifluoromethyl-phenyl)-pyridin-4-yl]-4-methyl-pentanoic acid]

Same assay, conditions: SKNBE2 cells carrying APP 695-wild type

Row | Compound | EC50 [nM]
26 | CC(C)CC(C(=O)O)c1cc(-c2ccc(C(F)(F)F)cc2)nc(-c2cnc3ccccc3c2)c1 (stereo not shown) [Example 7, 4-Methyl-2-[2-quinolin-3-yl-6-(4-trifluoromethyl-phenyl)-pyridin-4-yl]-pentanoic acid] | 670
27 | CC(C)CC(C(=O)O)c1cc(-c2ccc(C(F)(F)F)cc2)nc(N(CCC2CCCCC2)c2ccc(C(F)(F)F)cc2)c1 (stereo not shown) [Example 44, 2-[2-[(2-Cyclohexyl-ethyl)-(4-trifluoromethyl-phenyl)-amino]-6-(4-trifluoromethyl-phenyl)-pyridin-4-yl]-4-methyl-pentanoic acid] | 640
28 | CC(C)CC(C(=O)O)c1cc(-c2ccc(C(F)(F)F)cc2)nc(N(CC(C)C)c2ccc(C(F)(F)F)cc2)c1 (stereo not shown) [Example 40, 2-[2-[Isobutyl-(4-trifluoromethyl-phenyl)-amino]-6-(4-trifluoromethyl-phenyl)-pyridin-4-yl]-4-methyl-pentanoic acid] | 340
29 | CC(C)CCN(c1ccc(C(F)(F)F)cc1)c1cc(C(CC(C)C)C(=O)O)cc(-c2ccc(C(F)(F)F)cc2)n1 (stereo not shown) [Example 41, 4-Methyl-2-[2-[(3-methyl-butyl)-(4-trifluoromethyl-phenyl)-amino]-6-(4-trifluoromethyl-phenyl)-pyridin-4-yl]-pentanoic acid] | 300
30 | CC(C)CC(C(=O)O)c1cc(-c2ccc(C(F)(F)F)cc2)nc(-c2cc(F)cc(C(F)(F)F)c2)c1 (stereo not shown) [Example 8, 2-[2-(3-Fluoro-5-trifluoromethyl-phenyl)-6-(4-trifluoromethyl-phenyl)-pyridin-4-yl]-4-methyl-pentanoic acid] | 120

Next, values leading:

Row | EC50 [nM] | Compound
31 | 260 | CC(C)CC(C(=O)O)c1cc(-c2ccc(C(F)(F)F)cc2)nc(-c2ccc(C(F)(F)F)cc2)c1 (stereo not shown) [Example 1, 2-[2,6-Bis-(4-trifluoromethyl-phenyl)-pyridin-4-yl]-4-methyl-pentanoic acid]
32 | 380 | CC(C)CC(C(=O)O)c1cc(-c2ccc(OC(F)(F)F)cc2)nc(-c2ccc(C(F)(F)F)cc2)c1 (stereo not shown) [Example 3, 4-Methyl-2-[2-(4-trifluoromethoxy-phenyl)-6-(4-trifluoromethyl-phenyl)-pyridin-4-yl]-pentanoic acid]
33 | 200 | CC(C)CC(C(=O)O)c1cc(-c2ccc(C(F)(F)F)cc2)nc(-c2cc(F)cc(F)c2)c1 (stereo not shown) [Example 10, 2-[2-(3,5-Difluoro-phenyl)-6-(4-trifluoromethyl-phenyl)-pyridin-4-yl]-4-methyl-pentanoic acid]
34 | 730 | CC(C)CC(C(=O)O)c1cc(-c2ccc(C(C)C)cc2)nc(-c2ccc(C(F)(F)F)cc2)c1 (stereo not shown) [Example 9, 2-[2-(4-Isopropyl-phenyl)-6-(4-trifluoromethyl-phenyl)-pyridin-4-yl]-4-methyl-pentanoic acid]
